Broadly, the IC50 is the midpoint of a concentration-inhibition curve. High values mean weaker potency in that assay, low ones greater potency in that assay.

For this assay, the target named is T1, C-X-C chemokine receptor type 3 (Homo sapiens, UniProt P49682).
T1 sequence (P49682 whole entry): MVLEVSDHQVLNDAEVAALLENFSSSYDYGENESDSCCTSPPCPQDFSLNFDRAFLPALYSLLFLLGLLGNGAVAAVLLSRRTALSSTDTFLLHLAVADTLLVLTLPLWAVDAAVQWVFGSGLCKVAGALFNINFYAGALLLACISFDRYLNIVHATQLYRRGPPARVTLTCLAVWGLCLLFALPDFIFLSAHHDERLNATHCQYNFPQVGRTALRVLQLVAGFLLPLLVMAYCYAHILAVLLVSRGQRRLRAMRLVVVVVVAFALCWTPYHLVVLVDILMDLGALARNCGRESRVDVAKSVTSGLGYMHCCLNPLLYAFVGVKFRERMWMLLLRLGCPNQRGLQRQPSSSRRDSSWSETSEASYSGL
The assay can be described thus: Competition Radioligand Binding Assay: Competition radioligand binding assays were performed to determine the in vitro potency of the newly synthesized, unlabeled test compounds to displace the specific binding of the radiolabelled endogenous chemokine, 125I-CXCL10, from the human CXCR3-A receptor. IC50 values were determined for the test compounds and used to explore the structure-activity relationships (SAR).
The compound `CN1CC(=O)N(CCOc2ccc(CN(C[C@H]3CC[C@H](C(=O)O)CC3)C3CCc4cc(Cl)ccc43)cc2Cl)C1=O` (some centres undefined) displayed an IC50 of 1200 nM. `COc1cc(CN(C[C@H]2CC[C@H](C(=O)O)CC2)C(C)c2ccc3c(c2)CCO3)ccc1CCCN1C(=O)CCC1=O` (some centres undefined) showed a concentration for half-maximal inhibition (IC50) of 81 nM. Against the preceding compound, the IC50 is about 15-fold lower.

`Cc1cc(CN(C[C@H]2CC[C@H](C(=O)O)CC2)C(C)c2ccc(Cl)c(Cl)c2)ccc1OCCN1C(=O)CN(C)C1=O` (some centres undefined) displayed an IC50 of 431 nM. In turn, `COc1cc(CN(C2CC(C(=O)O)C2)C(C)c2ccc3c(c2)CCO3)ccc1OCCN1C(=O)CCC1=O` (centres undefined) showed an IC50 of 58 nM.
